Among the test systems are A549; HOP-62; OVCAR-8; HT-29; Malme-3M; KM12; MCF7; SR; HCT-15; K562; NCI/ADR-RES; BT-549; MOLT-4; Hs-578T; LOX IMVI; SK-MEL-5; MDA-MB-435; SK-MEL-28; CAKI-1; SNB-75.
Holding throughout (assay): DTP human tumour cell line panel, 48 h

SMILES strings stand for the structures.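 Assay format: 96-well plates, 48-hour exposure. GI50 is the concentration that inhibits growth by half.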 The source made the active and inactive calls. No stated cut-off is given here; in the data, active = GI50 up to about 1.1 µM and inactive = higher.

In general, GI50 refers to the concentration at which growth is held to half of that of the control. Regarding `CC(C)(C)OC(=O)N/C(C=O)=C\C1CCCCC1`, the GI50 is > 100 µM (inactive) in the assay on A549; 21 µM (inactive) with HOP-62; 16.3 µM (inactive) in the assay with OVCAR-8; 27.2 µM (inactive) in the assay on HT-29; 25.8 µM (inactive) in the assay on Malme-3M; 24.4 µM (inactive) in the assay on KM12. Moreover, the GI50 in the assay with MCF7 is 25.6 µM (inactive); in the assay on SR it was 17.3 µM (inactive); with HCT-15, 18.8 µM; in the assay on K562, 22.6 µM (inactive); with NCI/ADR-RES, 18.3 µM (inactive); in the assay on BT-549 it was 25.2 µM (inactive). In addition, the GI50 in the assay on MOLT-4 is 14.8 µM (inactive); in the assay on Hs-578T it was 27.3 µM (inactive); in the assay with LOX IMVI, 14.3 µM (inactive); in the assay on SK-MEL-5, 15.3 µM (inactive); in the assay with MDA-MB-435, 20 µM (inactive); in the assay with SK-MEL-28 it was 46.6 µM (inactive). Further, the GI50 was 20.4 µM (inactive) in the assay on CAKI-1 and 29.7 µM (inactive) in the assay on SNB-75.

For `CCCCC(/C=C\COC1CCCCO1)=C/C(=O)OCC` (stereo not given), the GI50 in the assay on A549 was 56.6 µM (inactive); in the assay with HOP-62, > 100 µM (inactive); in the assay with OVCAR-8, 94.4 µM (inactive); with HT-29 it was 38.4 µM (inactive); in the assay on Malme-3M, > 100 µM (inactive); with KM12 it was 46.6 µM (inactive). Moreover, the GI50 in the assay with MCF7 is 46.9 µM (inactive); in the assay on SR, 32.6 µM (inactive); in the assay on HCT-15, over 100 µM; in the assay on K562, 45.2 µM (inactive); in the assay with NCI/ADR-RES it was > 100 µM (inactive); with BT-549 it was > 100 µM (inactive). For the same compound, the GI50 in the assay with MOLT-4 was 25.1 µM (inactive); with Hs-578T it was 83.9 µM (inactive); in the assay with LOX IMVI it was 41.4 µM (inactive); in the assay on SK-MEL-5, 92.5 µM (inactive); with MDA-MB-435, > 100 µM (inactive); with SK-MEL-28 it was > 100 µM (inactive). The GI50 in the assay with CAKI-1 is > 100 µM (inactive); with SNB-75, 48.8 µM (inactive).

With `CCC1(OC(=O)CN2CCN(CCO)CC2)C(=O)OCc2c1cc1n(c2=O)Cc2cc3ccccc3nc2-1` (stereo not given), the GI50 in the assay with A549 is 0.307 µM (active); in the assay with HOP-62, 0.0867 µM (active); with OVCAR-8, 0.522 µM (active); in the assay with HT-29, 0.931 µM (active); with Malme-3M, 1.95 µM (inactive); with KM12, 0.457 µM (active). The GI50 was 0.107 µM (active) with MCF7; 0.0221 µM (active) with SR; 1.49 µM with HCT-15; 0.583 µM (active) in the assay on K562; 0.11 µM (active) in the assay with NCI/ADR-RES; 0.736 µM (active) in the assay with BT-549. Further, the GI50 with MOLT-4 is 0.034 µM (active); in the assay with Hs-578T, 14 µM (inactive); in the assay with LOX IMVI, 0.18 µM (active); in the assay with SK-MEL-5, 0.281 µM (active); with MDA-MB-435, 1.15 µM (inactive); with SK-MEL-28, 3.33 µM (inactive). Also, the GI50 is 0.047 µM (active) in the assay on CAKI-1 and 0.234 µM (active) with SNB-75.

For the compound `CCOC1OC(C)(C=C(C#N)C#N)CCC1C` (stereo not given), the GI50 is 45.5 µM (inactive) in the assay with A549; 22.9 µM (inactive) in the assay on HOP-62; 27.7 µM (inactive) in the assay on OVCAR-8; 27.6 µM (inactive) with HT-29; 43.3 µM (inactive) in the assay with Malme-3M; > 74 µM (inactive) in the assay with KM12. For the same compound, the GI50 is 35.2 µM (inactive) with MCF7; 22.1 µM (inactive) with SR; 25.5 µM with HCT-15; 16.8 µM (inactive) with K562; 35.2 µM (inactive) in the assay with NCI/ADR-RES; 21.4 µM (inactive) in the assay with BT-549. Besides, the GI50 was 33.3 µM (inactive) in the assay with MOLT-4; 36 µM (inactive) with Hs-578T; 22.8 µM (inactive) in the assay with LOX IMVI; 53.8 µM (inactive) with SK-MEL-5; 39.1 µM (inactive) with MDA-MB-435; 47.2 µM (inactive) in the assay on SK-MEL-28. Besides, the GI50 is 33.2 µM (inactive) with CAKI-1 and 14.6 µM (inactive) in the assay with SNB-75.

`Cc1ccc(-c2nc(N/N=C/C=C/c3ccccc3)c3ccccc3n2)cc1`: the GI50 with A549 was 34.4 µM (inactive); with HOP-62 it was 64.4 µM (inactive); in the assay with OVCAR-8, 44.2 µM (inactive); with HT-29, 32.8 µM (inactive); in the assay on Malme-3M, 30 µM (inactive); with KM12, 54 µM (inactive). Besides, the GI50 in the assay on MCF7 was 14 µM (inactive); in the assay on SR it was > 100 µM (inactive); in the assay with HCT-15, 48.4 µM; with K562, > 100 µM (inactive); in the assay on NCI/ADR-RES, 72.9 µM (inactive); in the assay on BT-549, 23.1 µM (inactive). For the same compound, the GI50 in the assay on MOLT-4 was > 100 µM (inactive); in the assay on Hs-578T, > 100 µM (inactive); with LOX IMVI, 48.6 µM (inactive); with SK-MEL-5 it was 14.8 µM (inactive); in the assay with MDA-MB-435, 52 µM (inactive); in the assay with SK-MEL-28, 34.2 µM (inactive). Besides, the GI50 is 38.8 µM (inactive) in the assay with CAKI-1 and 33.6 µM (inactive) in the assay with SNB-75.

Regarding `O/N=C1/Nc2cc(Cl)ccc2C(=S)N2CSCC12` (stereo not given), the GI50 in the assay on A549, with HOP-62, with OVCAR-8, with HT-29, in the assay on Malme-3M and in the assay on KM12 was > 100 µM (inactive) each time. In addition, the GI50 with MCF7 is > 100 µM (inactive); with SR, > 100 µM (inactive); with HCT-15, over 100 µM; in the assay on K562, 87.3 µM (inactive); with NCI/ADR-RES, > 100 µM (inactive); with BT-549, > 100 µM (inactive). For the same compound, the GI50 with MOLT-4, in the assay with Hs-578T, with LOX IMVI, in the assay with SK-MEL-5, with MDA-MB-435 and with SK-MEL-28 was > 100 µM (inactive) each time. For the same compound, the GI50 in the assay with CAKI-1 and in the assay with SNB-75 was > 100 µM (inactive) in each case.

Turning to `O=C(O)c1ccc(C(=O)c2ccccc2)c(C(=O)O)c1`, the GI50 in the assay with A549, in the assay on HOP-62, in the assay with OVCAR-8, in the assay with HT-29, in the assay with Malme-3M and in the assay on KM12 was > 100 µM (inactive) throughout. The GI50 is > 100 µM (inactive) in the assay on MCF7; > 100 µM (inactive) in the assay with SR; over 100 µM with HCT-15; > 100 µM (inactive) in the assay with K562; > 100 µM (inactive) in the assay with NCI/ADR-RES; > 100 µM (inactive) in the assay on BT-549. The GI50 with MOLT-4, in the assay on Hs-578T, in the assay on LOX IMVI, in the assay with SK-MEL-5, with MDA-MB-435 and in the assay on SK-MEL-28 was > 100 µM (inactive) each time. Further, the GI50 in the assay on CAKI-1 and in the assay on SNB-75 was > 100 µM (inactive) each time.

As for `Cc1cc2c(cc1C)[n+]([O-])c(C(=O)/C=C/c1ccc3c(c1)OCO3)c(C)[n+]2[O-]`, the GI50 was > 92.9 µM (inactive) in the assay on A549; 21 µM (inactive) with HOP-62; > 100 µM (inactive) in the assay on OVCAR-8; > 100 µM (inactive) in the assay with HT-29; 73.1 µM (inactive) with Malme-3M; > 100 µM (inactive) in the assay with KM12. In addition, the GI50 with MCF7 is > 100 µM (inactive); with SR it was > 100 µM (inactive); with HCT-15, over 100 µM; in the assay with K562, > 100 µM (inactive); with NCI/ADR-RES it was 74.6 µM (inactive); in the assay with BT-549 it was 69.3 µM (inactive). Further, the GI50 in the assay with MOLT-4 is > 100 µM (inactive); in the assay on Hs-578T it was 26.2 µM (inactive); in the assay on LOX IMVI, 36.7 µM (inactive); in the assay with SK-MEL-5, > 100 µM (inactive); in the assay with MDA-MB-435 it was > 100 µM (inactive); in the assay with SK-MEL-28, > 100 µM (inactive). The GI50 in the assay on CAKI-1 is 61.1 µM (inactive); with SNB-75, 19.7 µM (inactive).

Consider `CC[C@@]1(OP(=O)(O)O)C(=O)OCc2c1cc1n(c2=O)Cc2cc3ccccc3nc2-1`, for which the GI50 in the assay with A549 is 0.143 µM (active); with HOP-62, 0.253 µM (active); in the assay with OVCAR-8 it was 0.224 µM (active); in the assay on HT-29 it was 0.319 µM (active); with Malme-3M it was 1.67 µM (inactive); with KM12, 0.398 µM (active). Besides, the concentration for 50% growth inhibition (GI50) in the assay on MCF7 is 0.0358 µM (active); with SR, 0.00274 µM (active); with HCT-15, 0.748 µM; in the assay with K562, 0.438 µM (active); in the assay with NCI/ADR-RES, 0.0718 µM (active); with BT-549, 0.201 µM (active). The GI50 is 0.014 µM (active) in the assay with MOLT-4; > 10 µM (inactive) in the assay with Hs-578T; 0.0391 µM (active) in the assay on LOX IMVI; 0.153 µM (active) in the assay with SK-MEL-5; 0.339 µM (active) in the assay on MDA-MB-435; 1.22 µM (inactive) with SK-MEL-28. Also, the 50% growth inhibitory concentration (GI50) with CAKI-1 is 0.0467 µM (active); in the assay with SNB-75 it was 0.16 µM (active).

For `C=C[C@]1(C)CC[C@]2(C)C(CC[C@@]3(C)C2C[C@H](O)[C@H](O)[C@@]3(C)O)C1` (stereo not given in full), the GI50 in the assay on A549, with HOP-62, in the assay on OVCAR-8, in the assay on HT-29, in the assay on Malme-3M and in the assay with KM12 was > 100 µM (inactive) in each case. Moreover, the GI50 is > 100 µM (inactive) in the assay on MCF7; > 100 µM (inactive) in the assay on SR; over 100 µM in the assay on HCT-15; > 100 µM (inactive) with K562; > 100 µM (inactive) in the assay with NCI/ADR-RES; > 100 µM (inactive) in the assay with BT-549. In addition, the GI50 in the assay on MOLT-4, in the assay on Hs-578T, with LOX IMVI, in the assay with SK-MEL-5, in the assay on MDA-MB-435 and in the assay with SK-MEL-28 was > 100 µM (inactive) throughout. Further, the GI50 in the assay on CAKI-1 and with SNB-75 was > 100 µM (inactive) throughout.
